Laboratory results as given in patent publication US11633395B2, “Substituted pyrazolo[1,5-a]pyrazines as negative allosteric modulators of group II metabotropic glutamate receptor” (Sumitomo Pharma Co., Ltd., priority 2017, dated 2023).

Assays:
CYP3A4 = CYP3A4 (Homo sapiens (Human), UniProt P08684); experiment: Assessment of MBI and enzyme inactivation clearance against CYP3A4 (human liver microsomes, midazolam or testosterone as substrate); format: in vitro ADME; details: for microsomal CLint: probe midazolam or testosterone, CYP3A4, human liver microsomes, CLint = kinact/KI x CYP contents; for CYP3A4 MBI: shift in IC50 values due to preincubation with NADPH, human liver microsomes, MBI potential when 2-fold or more, N.D. = Not Detected
Chain of CYP3A4 (P08684 whole entry): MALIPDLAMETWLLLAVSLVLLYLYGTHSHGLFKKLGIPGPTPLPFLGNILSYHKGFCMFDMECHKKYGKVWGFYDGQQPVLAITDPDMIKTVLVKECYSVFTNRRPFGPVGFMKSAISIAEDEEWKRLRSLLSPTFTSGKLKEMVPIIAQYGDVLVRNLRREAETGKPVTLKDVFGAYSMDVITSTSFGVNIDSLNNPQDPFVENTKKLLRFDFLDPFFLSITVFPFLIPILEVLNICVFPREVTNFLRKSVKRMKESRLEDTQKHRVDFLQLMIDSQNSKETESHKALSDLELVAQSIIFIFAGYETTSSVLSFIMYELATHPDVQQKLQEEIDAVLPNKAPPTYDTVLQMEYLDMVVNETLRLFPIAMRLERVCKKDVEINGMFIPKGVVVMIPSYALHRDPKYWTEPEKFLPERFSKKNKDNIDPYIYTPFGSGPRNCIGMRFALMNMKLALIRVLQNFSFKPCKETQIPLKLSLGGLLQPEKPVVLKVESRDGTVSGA
Text: Test 4: Assessment of MBT and Enzyme Inactivation Clearance Against CYP3A4
Cytochrome P450 (hereinafter called CYP) is the most important enzyme group associated with drug metabolism, and most of pharmacokinetic interactions are based on the inhibition of the CYP activities. CYP includes multiple molecular species. In particular, CYP3A4 is most involved in drug metabolism in oxidation reaction with CYP, and accounts for a major portion of CYPs existing in the liver.
CYP inhibition is generally divided into two types consisting of “reversible inhibition” and “irreversible inhibition (mechanism-based inhibition: MBI)”. In particular, CYP inhibition based on the MBI is known to have a possibility to cause severe side effects such as hepatotoxicity as well as drug-drug interactions (Curr Opin Drug Discov Devel. 2010 January, 13(1), 66-77, Therapeutics and Clinical Risk Management, 2005, 1(1), 3-13).
MBI and enzyme inactivation clearance against CYP3A4 were evaluated for example compounds.
Inhibition effects and inhibition types of test compounds to CYP3A4 were evaluated using human liver microsomes as an enzyme source and midazolam or testosterone as a substrate of CYP3A4. After metabolic reaction for 30 minutes at 37° C., metabolites of CYP3A4 substrate in the presence or absence of a test compound (at 4 concentrations) were measured by LC-MS/MS, and the inhibition rates were calculated from the ratios of peak area. IC50 values were calculated from plots of test compound concentrations. It was known that when a test compound has MBI potential, IC50 value is lowered by starting metabolic reactions after preincubation in the presence of NADPH (cofactor). Therefore, it was determined that there was MBI potential when the shift in IC50 values due to preincubation was 2-fold or more (Xenobiotica, 2009, 39(2), 99-112).
When MBI potential was determined, kinact (maximum inactivation rate constant) and KI (inactivator concentration yielding a measured inactivation rate at half of kinact) were calculated by the non-linear least-squares method. Enzyme inactivation clearance was calculated according to the method described in Drug Metabolism and Disposition, 2011, 39(7), 1247-1254 (CLint=kinact/KI([…])×CYP contents (pmol/mg protein)).

human mGlu2 receptor = human mGlu2 receptor (Homo sapiens (Human), UniProt Q14416); experiment: Assessment of mGlu2 receptor negative allosteric modulator activity in human mGlu2 receptor stable expressing cells (aequorin luminescence, EC80 glutamate); format: cell-based; details: human mGlu2 receptor stable expressing HEK cells; compound added 120 seconds before EC80 glutamate; luminescence (RLU); read-out: mGluR2 NAM IC50 (nM) or inhibition rate (%)
Chain of human mGlu2 receptor (Q14416 19-872): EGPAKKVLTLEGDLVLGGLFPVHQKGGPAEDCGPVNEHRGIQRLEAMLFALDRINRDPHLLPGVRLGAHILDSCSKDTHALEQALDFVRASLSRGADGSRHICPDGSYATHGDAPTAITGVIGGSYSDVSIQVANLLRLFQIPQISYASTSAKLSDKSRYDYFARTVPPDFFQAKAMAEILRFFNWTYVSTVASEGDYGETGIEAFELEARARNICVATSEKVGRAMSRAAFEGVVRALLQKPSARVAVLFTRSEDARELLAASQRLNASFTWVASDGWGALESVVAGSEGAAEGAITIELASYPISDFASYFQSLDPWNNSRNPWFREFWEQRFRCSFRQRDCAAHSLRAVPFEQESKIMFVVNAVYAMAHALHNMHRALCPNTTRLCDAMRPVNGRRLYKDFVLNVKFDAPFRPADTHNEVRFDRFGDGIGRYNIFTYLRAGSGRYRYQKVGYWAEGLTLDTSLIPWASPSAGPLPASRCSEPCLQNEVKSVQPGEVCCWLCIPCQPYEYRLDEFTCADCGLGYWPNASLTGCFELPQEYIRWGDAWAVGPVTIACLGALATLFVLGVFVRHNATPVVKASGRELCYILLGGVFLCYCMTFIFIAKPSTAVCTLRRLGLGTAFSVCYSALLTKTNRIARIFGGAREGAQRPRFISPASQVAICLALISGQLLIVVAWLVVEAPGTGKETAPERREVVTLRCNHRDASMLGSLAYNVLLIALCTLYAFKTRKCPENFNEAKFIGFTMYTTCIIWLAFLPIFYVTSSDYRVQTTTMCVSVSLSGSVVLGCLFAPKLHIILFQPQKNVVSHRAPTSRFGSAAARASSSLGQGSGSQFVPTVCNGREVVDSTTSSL
Protocol: Test 1: Assessment with Human mGlu2 Receptor Stable Expressing Cells
(1) Human mGlu2 Receptor Stable Expressing Cells
Human mGlu2 receptor stable expressing cells were prepared, and used for incubation. Specifically, human mGlu2 receptor gene was inserted into pcDNA4/TO (K1020-01, Life technologies, Carlsbad, Calif., USA), and introduced into TR-expressed human kidney-derived HEK cells (cat #CCL-82.2, ATCC, USA), followed by screening with Geneticin (cat #10131-027, Life technologies, Carlsbad, Calif., USA), to obtain human mGlu2 receptor stable expressing cells.
High glucose-DMEM media (cat #11995-065, Life technologies, Carlsbad, Calif., USA) containing 10% Dialysed-FBS (cat #26400-044, Life technologies, Carlsbad, Calif., USA), 50 μg/mL Blasticidin S (cat #ANT-BL-1, Life technologies, Carlsbad, Calif., USA), and 2 mg/mL G418 (cat #16513-84, nacalai tesque, Kyoto, Japan) were used for incubation on flasks for cell culture (cat #3133-150, AGC Thechno Glass, Shizuoka, Japan). During the incubation, cells were recovered by the treatment with TrypLE Express (cat #12604-013, Life technologies, Carlsbad, Calif., USA), followed by subculture, every three to four days.
Cells were recovered by an about 80% confluency in the treatment with TrypLE Express three to four days after the subculture, transiently transfected with Ga16, apoaequorin, in media of Hanks (cat #14065-056, Life technologies, Carlsbad, Calif., USA)/20 mmol/L HEPES (cat #15630-080, Life technologies, Carlsbad, Calif., USA) Buffer (pH 7.4) containing 0.1% BSA (cat #12604-013, Life technologies, Carlsbad, Calif., USA) and 0.1 μg/mL Tetracycline (cat #33031-64, nacalai tesque, Kyoto, Japan), and then seeded on a 384-well plate (cat #781090, Greiner bio-one, Frickenhausen, Germany) in 1,500 cells/30 μL/well.
Coelentetrazine h (cat #S2011, Promega, Madison, Wis., USA) was added to the plate (10 μl/well) so as to be a final concentration of 1 μmol/L on the day after the seeding, and let stand for 4 hours or more at room temperature after centrifugation.
(2) Preparation of Test Compounds
A test compound was dissolved in DMSO so as to be a concentration 1000 times higher than the assessment concentration. This DMSO solution was diluted with a medium (Hanks, 20 mmol/L HEPES, 0.1% BSA) to a concentration 6 times higher than the assessment concentration. Glutamate was diluted with Hanks/20 mmol/L HEPES/0.1% BSA medium to a concentration 6 times higher than EC80 concentration.
(3) Assessment of mGlu2 Receptor Negative Allosteric Modulator Activity
Human mGlu2 receptor stable expressing cells were prepared and incubated. Luminescence signals by mGlu2 receptor stimulation were detected with FDSS7000 (Hamamatsu Photonics). The compound solution prepared above was added to a plate where cells and luminescent substrates were added (10 μl/well). After 120 seconds of the addition, EC80 Glutamate-containing solution was added thereto (10 μl/well), and luminescence signals were measured for 300 seconds after the addition (center wavelength: 465 nm) for calculation of RLU (Integration). mGlu2 receptor negative allosteric modulator activity of a compound was calculated by (100-100×(RLU of each compound and concentration)/(RLU of DMSO group)).
The present compound was assessed with the above biological test, and the compounds with mGlu2 receptor negative allosteric modulator activity were found out. mGlu2 receptor negative allosteric modulator activity (IC50 value (nmol/L)) for each compound is shown in the following table.

| microsomal CLint (CYP3A4) [µL/min/mg] | CYP3A4 MBI (CYP3A4) | IC50 (human mGlu2 receptor) [nM] | SMILES |
| --- | --- | --- | --- |
| 0.601 | 2.2 |  | C[C@H]1CN(c2ccc3c(c2)OC(F)(F)O3)C(=O)c2c(-c3ccc4nccn4c3)cnn21 [Example 8, (7S)-5-(2,2-difluoro-1,3-benzodioxol-5-yl)-3-(imidazo[1,2-a]pyridin-6-yl)-7-methyl-6,7-dihydropyrazolo[1,5-a]pyrazin-4(5H)-one] |
|  |  | 302 | C[C@H]1CN(c2ccc(C(F)(F)F)cc2)C(=O)c2c(-c3ccc4nc(N)cn4c3)cnn21 [Example 10, (7S)-3-(2-aminoimidazo[1,2-a]pyridin-6-yl)-7-methyl-5-[4-(trifluoromethyl)phenyl]-6,7-dihydropyrazolo[1,5-a]pyrazin-4(5H)-one] |
| 0.159 | 2.2 |  | C[C@H]1CN(c2ccc(C(F)(F)F)cn2)C(=O)c2c(-c3ccc4nccn4c3)cnn21 [Example 12, (7S)-3-(imidazo[1,2-a]pyridin-6-yl)-7-methyl-5-[5-(trifluoromethyl)pyridin-2-yl]-6,7-dihydropyrazolo[1,5-a]pyrazin-4(5H)-one] |
|  |  | 13 | CCCc1cnc2ccc(-c3cnn4c3C(=O)N(c3ccc(C(F)(F)F)cc3)C[C@@H]4C)cn12 [Example 16, (7S)-7-methyl-3-(3-propylimidazo[1,2-a]pyridin-6-yl)-5-[4-(trifluoromethyl)phenyl]-6,7-dihydropyrazolo[1,5-a]pyrazin-4(5H)-one] |
|  |  | 18 | C[C@H]1CN(c2ccc(C(F)(F)F)cc2)C(=O)c2c(-c3ccc4nccn4c3)cnn21 [Example 1, (7S)-3-(imidazo[1,2-a]pyridin-6-yl)-7-methyl-5-[4-(trifluoromethyl)phenyl]-6,7-dihydropyrazolo[1,5-a]pyrazin-4(5H)-one] |
|  |  | 6.9 | Cc1cc(N2C[C@H](C)n3ncc(-c4ccc5ncc(F)n5c4)c3C2=O)ccc1F [Example 18, (7S)-3-(3-fluoroimidazo[1,2-a]pyridin-6-yl)-5-(4-fluoro-3-methylphenyl)-7-methyl-6,7-dihydropyrazolo[1,5-a]pyrazin-4(5H)-one] |
| 2.15 | 4.5 | 11 | C[C@H]1CN(c2ccc(Cl)s2)C(=O)c2c(-c3ccc4nccn4c3)cnn21 [Example 7, (7S)-5-(5-chlorothiophen-2-yl)-3-(imidazo[1,2-a]pyridin-6-yl)-7-methyl-6,7-dihydropyrazolo[1,5-a]pyrazin-4(5H)-one] |
|  |  | 23 | C[C@H]1CN(c2ccc(F)c(Cl)c2)C(=O)c2c(-c3ccc4nccn4c3)cnn21 [Example 3, (7S)-5-(3-chloro-4-fluorophenyl)-3-(imidazo[1,2-a]pyridin-6-yl)-7-methyl-6,7-dihydropyrazolo[1,5-a]pyrazin-4 (5H)-one] |
|  |  | 7.9 | C[C@H]1CN(c2ccc(C(F)(F)F)cc2)C(=O)c2c(-c3ccc4ncc(F)n4c3)cnn21 [Example 13, (7S)-3-(3-fluoroimidazo[1,2-a]pyridin-6-yl)-7-methyl-5-[4-(trifluoromethyl)phenyl]-6,7-dihydropyrazolo[1,5-a]pyrazin-4(5H)-one] |
|  |  | 33 | C[C@H]1CN(c2ccc(C(F)F)cc2)C(=O)c2c(-c3ccc4nccn4c3)cnn21 [Example 4, (7S)-5-[4-(difluoromethyl)phenyl]-3-(imidazo[1,2-a]pyridin-6-yl)-7-methyl-6,7-dihydropyrazolo[1,5-a]pyrazin-4(5H)-one] |
|  |  | 11 | C[C@H]1CN(c2ccc(C(F)(F)F)cc2)C(=O)c2c(-c3cn4ccnc4cn3)cnn21 [Example 2, (7S)-3-(imidazo[1,2-a]pyrazin-6-yl)-7-methyl-5-[4-(trifluoromethyl)phenyl]-6,7-dihydropyrazolo[1,5-a]pyrazin-4(5H)-one] |
|  |  | 61 | C[C@H]1CN(c2ccc(OC(F)F)cc2)C(=O)c2c(-c3ccc4nccn4c3)cnn21 [Example 9, (7S)-5-[4-(difluoromethoxy)phenyl]-3-(imidazo[1,2-a]pyridin-6-yl)-7-methyl-6,7-dihydropyrazolo[1,5-a]pyrazin-4(5H)-one] |
| 1.94 | 3.2 | 17 | Cc1cc(N2C[C@H](C)n3ncc(-c4ccc5nccn5c4)c3C2=O)ccc1F [Example 17, (7S)-5-(4-fluoro-3-methylphenyl)-3-(imidazo[1,2-a]pyridin-6-yl)-7-methyl-6,7-dihydropyrazolo[1,5-a]pyrazin-4(5H)-one] |
|  |  | 78 | C[C@H]1CN(c2ccc(C(F)(F)F)cc2)C(=O)c2c(-c3ccc4ncc(N)n4c3)cnn21 [Example 11, (7S)-3-(3-aminoimidazo[1,2-a]pyridin-6-yl)-7-methyl-5-[4-(trifluoromethyl)phenyl]-6,7-dihydropyrazolo[1,5-a]pyrazin-4(5H)-one] |
